In patent publication US7071167B2 (L'Oreal, priority 2002, dated 2006):
“And” between values parts separate entries of the source, which are not always exact repeats. Equal values may be shown once.

Test system: Ca^2+ channel (L, verapamil site)
Assay: Equilibrium binding competition on type-L calcium channels, verapamil site ([3H](-)D 888 displacement)
Design: species or system rat
Conditions: for Mean % of binding / % of binding / Mean % of inhibition: Argireline 1.0%, magnesium gluconate 1 × 10^−4 M, combination 1 × 10^−4 M/1.0%; for % of binding: individual determinations, specific binding of 0.5 nM (3H)(-)D 888, rat cerebral cortex homogenates; for Mean % of inhibition: inhibition of specific binding
Experimental: The studies were performed using rat cerebral cortex homogenates (isolated membranes having type-L calcium channels at their surface).
The principle of an equilibrium displacement experiment includes measuring the specific binding at equilibrium, of a given concentration of radiolabelled ligand in the presence of a variable and increasing concentration of cold ligand. The cold ligand enters into competition with the radioactive ligand for its binding to the receptor; this is why this may be termed binding competition at equilibrium.
The experimental conditions according to the protocol described by Reynolds, I. J. et al., J. Pharmacol. Exp. Ther., vol. 237, p.
D 888 and D 600 are the reference molecules specific for the type-L calcium channels, verapamil site.
The specific binding of a ligand (labelled D 888) to the receptors (type-L calcium channels, verapamil site) is defined as the difference between the total binding and the […] determined in the presence of an excess of cold ligand. The results are expressed as a percentage of specific binding and as a percentage of inhibition of specific binding in the presence of the test compounds (Argireline®).

For Magnesium gluconate, the “Mean % of binding” value was 94.0%, the “% of binding” value was 93.8% and 95.2% and 93.0% and the “Mean % of inhibition” value was 6%. For the same substance, the “effect on the type-L calcium channels, verapamil site (in words)” value (used alone at concentrations of 1×10^−6 M to 1×10^−4 M) was “moderate effects”.
With “Acetyl glutamyl-glutamyl-methionyl-glutaminyl-arginyl-arginylamide (Ac-EEMQRR-NH2) [Argireline ®, supplied at 0.05% in water]” the “Mean % of binding” value was 96.1%, the “mean percentage of inhibition” value (Argireline at 5%) was 36% and the “mean percentage of inhibition” value (Argireline at 10%) was 52%. The “% of binding” value was 95.1% and 93.1% and 99.9% and the “Mean % of inhibition” value was 4%.
